In patent US20260285863A1, “COMPOUNDS CAPABLE OF MODULATING GPR65” (Pathios Therapeutics Limited, priority 2023, published 2026):

These compounds were tested against T1, human recombinant GPR65 (Homo sapiens, UniProt Q8IYL9) (assay: Human GPR65 cAMP HTRF antagonist assay). Conditions: 1321N1-hrGPR65 cells, assay pH 7.2, cAMP HTRF; read-out: hGPR65 IC50.
T1 construct: host or cells: 1321N1 human astrocytoma cells (1321N1-hrGPR65)
T1 sequence (Q8IYL9 whole entry): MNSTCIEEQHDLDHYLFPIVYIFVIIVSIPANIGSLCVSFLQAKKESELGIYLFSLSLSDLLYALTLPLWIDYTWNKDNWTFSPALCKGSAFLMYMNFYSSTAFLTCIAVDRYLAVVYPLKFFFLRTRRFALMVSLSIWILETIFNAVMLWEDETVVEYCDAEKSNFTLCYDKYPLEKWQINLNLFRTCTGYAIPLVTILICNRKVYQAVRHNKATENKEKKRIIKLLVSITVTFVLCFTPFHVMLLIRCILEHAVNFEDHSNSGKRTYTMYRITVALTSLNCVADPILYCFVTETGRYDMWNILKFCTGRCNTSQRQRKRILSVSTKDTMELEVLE
Assay type: cell-based
Description: The “Human GPR65 cyclic adenosine monophosphate (cAMP) Homogeneous Time Resolved Fluorescence (HTRF) antagonist assay”, or simply “cAMP assay”, as described in the accompanying examples, can be used to measure the potency of GPR65 modulators, which is expressed as the concentration of compound required to reduce the increase in cAMP concentration upon GPR65 activation by 50% (i.e. an IC50).
Human GPR65 Cyclic Adenosine Monophosphate (cAMP) Homogeneous Time Resolved Fluorescence (HTRF) Antagonist Assay Procedure
IC50data was obtained by the following procedure:
1321N1 human astrocytoma cells stably expressing human recombinant GPR65 (1321N1-hrGPR65 cells, EuroscreenFast) were cultured according to the vendor's instructions.
Compounds were tested for their ability to antagonise GPR65, through measuring the concentration of cytoplasmic cAMP following treatment of the cells at a pH of 7.2 to activate GPR65 signalling and addition of the compound to be tested. The extent to which the expected rise in cAMP concentration upon GPR65 activation was suppressed by the added compound is indicative of its potency. The assay was carried out according to EuroscreenFast assay Methodology as follows.
On the day of the assay, test compounds were added to 384-well, low volume, white microtiter plates by acoustic dispensing. KRH buffer (5 mM KCl, 1.25 mM MgSO4, 124 mM NaCl, 25 mM HEPES, 13.3 mM Glucose, 1.25 mM KH2PO4 and 1.45 mM CaCl2) was adjusted to pH 6.5, pH 7.6 and pH 8.4 by adding NaOH. 1321N1-hGPR65 cells were rapidly thawed and diluted in KRH, pH 7.6 prior to centrifugation at 300×g for 5 min and resuspension in assay buffer (KRH, pH 7.6, supplemented with 1 mM 3-isobutyl-1-methylxanthine (IBMX) and 200 μM ethylenediaminetetraacetic acid (EDTA)). Cells were added to assay plates at a density of 2,000 cells per well in a volume of […]. Assay plates were briefly centrifuged at 100×g and then incubated at room temperature for 30 min. Cells were stimulated by the addition of 5 μL KRH, pH 6.5, to achieve an assay pH of 7.2, while control wells received […] KRH, pH 8.4 to achieve an assay pH of 7.9. Assay plates were briefly centrifuged at 100×g and then incubated at room temperature for 30 min.
Accumulation of cAMP was detected by cAMP HTRF kit (Cisbio). d2-labeled cAMP and cryptate-labeled anti-cAMP antibody in Lysis and Detection Buffer (Cisbio) were added to assay plates, and the plates were incubated at room temperature for 1 h. HTRF measurements were performed using a Pherastar FSX instrument. Acceptor and donor emission signals were measured at 665 nm and 620 nm, respectively, and HTRF ratios were calculated as signal665 nm/signal620 nm×104. Data were normalised to high and low control values and fitted with 4-parameter logistic regression to determine hGPR65 IC50 values for the test compounds, which are shown in Table 1.
For `O=C(Nc1cc(Cl)c(-c2ccc(OC[C@H]3CC3(F)F)nc2)cc1F)N1[C@H]2CC[C@@H]1c1c[nH]c(=O)cc1C2` [Compound 82, (6S,9R)-N-(5-Chloro-4-(6-(((R)-2,2-difluorocyclopropyl)methoxy)pyridin-3-yl)-2-fluorophenyl)-3-oxo-3,5,6,7,8,9-hexahydro-2H-6,9-epiminocyclohepta[c]pyridine-10-carboxamide], the IC50 was under 0.5 µM. `O=C(Nc1cc(Cl)c(-c2ccc(OC[C@H]3CC3(F)F)nc2)cc1F)N1[C@H]2CC[C@@H]1c1n[nH]c(=O)cc1C2` [Compound 81, (6S,9R)-N-(5-Chloro-4-(6-(((R)-2,2-difluorocyclopropyl)methoxy)pyridin-3-yl)-2-fluorophenyl)-3-oxo-3,5,6,7,8,9-hexahydro-2H-6,9-epiminocyclohepta[c]pyridazine-10-carboxamide] gave an IC50 of under 0.5 µM. For `Cc1cc(NC(=O)N2[C@H]3CC[C@@H]2c2c[nH]c(=O)cc2C3)c(F)cc1-c1ccc(OCC(F)(F)F)nc1` [Compound 18, (6S,9R)-N-(2-fluoro-5-methyl-4-(6-(2,2,2-trifluoroethoxy)pyridin-3-yl)phenyl)-3-oxo-3,5,6,7,8,9-hexahydro-2H-6,9-epiminocyclohepta[c]pyridine-10-carboxamide], the IC50 was under 0.5 µM. Compound `O=C(Nc1cc(Cl)c(-c2ccc(OCC3CN(CC(F)(F)F)C3)nc2)cc1F)N1[C@H]2CC[C@@H]1c1c[nH]c(=O)cc1C2` [Compound 32, (6S,9R)-N-(5-chloro-2-fluoro-4-(6-((1-(2,2,2-trifluoroethyl)azetidin-3-yl)methoxy)pyridin-3-yl)phenyl)-3-oxo-3,5,6,7,8,9-hexahydro-2H-6,9-epiminocyclohepta[c]pyridine-10-carboxamide] has an IC50 of under 0.5 µM. Work on `O=C(Nc1cc(Cl)c(C(F)(F)F)cn1)N1C2CCC1C(F)(F)c1c2ccnc1F` (racemic) [Compound 34, (±)-N-(4-chloro-5-(trifluoromethyl)pyridin-2-yl)-1,9,9-trifluoro-6,7,8,9-tetrahydro-5H-5,8-epiminocyclohepta[c]pyridine-10-carboxamide] yielded an IC50 of under 0.5 µM. Compound `Cc1nc2cc(-c3cc(F)c(NC(=O)N4[C@H]5CC[C@@H]4c4c[nH]c(=O)cc4C5)cc3Cl)ccc2[nH]1` [Compound 68, (6S,9R)-N-(5-chloro-2-fluoro-4-(2-methyl-1H-benzo[d]imidazol-5-yl)phenyl)-3-oxo-3,5,6,7,8,9-hexahydro-2H-6,9-epiminocyclohepta[c]pyridine-10-carboxamide] has an IC50 of 0.5 to 5 µM. `O=C(Nc1cc(Cl)c(-c2ccc(OCC3(F)CC3)nc2)cc1F)N1[C@H]2CC[C@@H]1c1n[nH]c(=O)cc1C2` [Compound 86, (6S,9R)-N-(5-Chloro-2-fluoro-4-(6-((1-fluorocyclopropyl)methoxy)pyridin-3-yl)phenyl)-3-oxo-3,5,6,7,8,9-hexahydro-2H-6,9-epiminocyclohepta[c]pyridazine-10-carboxamide] was tested, and the IC50 was under 0.5 µM. `O=C(Nc1cc(Cl)c(Cl)cn1)N1[C@H]2CC[C@@H]1c1ccncc1C2` [Compound 44, (5R,8S)-N-(4,5-dichloropyridin-2-yl)-6,7,8,9-tetrahydro-5H-5,8-epiminocyclohepta[c]pyridine-10-carboxamide] showed an IC50 of under 0.5 µM. `O=C(Nc1cc(Cl)c(COc2ccc(OCC(F)(F)F)cn2)cc1F)N1[C@H]2CC[C@@H]1c1n[nH]c(=O)cc1C2` [Compound 55, (6S,9R)-N-(5-Chloro-2-fluoro-4-(((5-(2,2,2-trifluoroethoxy)pyridin-2-yl)oxy)methyl)phenyl)-3-oxo-3,5,6,7,8,9-hexahydro-2H-6,9-epiminocyclohepta[c]pyridazine-10-carboxamide] gave an IC50 of under 0.5 µM. `O=C(Nc1cc(Cl)c(-c2ccc(OC[C@@H]3CCOC3)nc2)cc1F)N1[C@H]2CC[C@@H]1c1n[nH]c(=O)cc1C2` [Compound 79, (6S,9R)-N-(5-Chloro-2-fluoro-4-(6-(((R)-tetrahydrofuran-3-yl)methoxy)pyridin-3-yl)phenyl)-3-oxo-3,5,6,7,8,9-hexahydro-2H-6,9-epiminocyclohepta[c]pyridazine-10-carboxamide] gave an IC50 of under 0.5 µM.
